Test results as given in patent publication US6632799B2, “Injectable ready-to-use solutions containing an antitumor anthracycline glycoside” (Pharmacia & Upjohn Company, priority 1985, dated 2003).
Counter-ions that a name gives are not always drawn.

Assays:
[1] = Shelf-life (t 90%) forecast of doxorubicin.HCl 2 mg/ml sterile water solution adjusted to pH 3.0; assay type: physicochemical; conditions: for Kobs × 10^3: observed
Protocol: The Arrhenius equation for the degradation process was calculated from the Kobs obtained from the different temperatures taken in account for the testing (table 11).
Applying the equation, the rate constants for the pseudo-first order reactions at 4° C., 8° C., 15° C. and 27° C. were calculated, together with the expected t90% at these temperatures.

[2] = Shelf-life (t 90%) forecast of doxorubicin.HCl 2 mg/ml solution in 5% dextrose adjusted to pH 3.0; assay type: physicochemical; conditions: for Kobs × 10^3: observed
Protocol: Applying the equation, the rate constants for the pseudo-first order reactions at 4° C., 8° C., and 15° C. and 27° C. were calculated, together with the expected t90% at these temperatures.

[3] = sterile water pH 3.0, 15° C., Arrhenius
[4] = sterile water pH 3.0, 27° C., 8 days
[5] = sterile water pH 3.0, 27° C., 14 days
[6] = sterile water pH 3.0, 27° C., 28 days
[7] = sterile water pH 3.0, 27° C., 32 days
[8] = sterile water pH 3.0, 27° C., 60 days
[9] = sterile water pH 3.0, 27° C., 90 days
[10] = sterile water pH 3.0, 35° C., 4 days
[11] = sterile water pH 3.0, 35° C., 8 days
[12] = sterile water pH 3.0, 35° C., 14 days
[13] = sterile water pH 3.0, 35° C., 32 days
[14] = sterile water pH 3.0, 45° C., 4 days
[15] = sterile water pH 3.0, 45° C., 8 days
[16] = sterile water pH 3.0, 45° C., 28 days
[17] = sterile water pH 3.0, 55° C., 4 days
[18] = sterile water pH 3.0, 55° C., 32 days
[19] = 5% dextrose pH 3.0, 35° C., 4 days
[20] = 5% dextrose pH 3.0, 35° C., 8 days
[21] = 5% dextrose pH 3.0, 35° C., 14 days
[22] = 5% dextrose pH 3.0, 35° C., 17 days
[23] = 5% dextrose pH 3.0, 35° C., 21 days
[24] = 5% dextrose pH 3.0, 45° C., 4 days
[25] = 5% dextrose pH 3.0, 45° C., 8 days
[26] = 5% dextrose pH 3.0, 45° C., 14 days
[27] = 5% dextrose pH 3.0, 45° C., 21 days
[28] = 5% dextrose pH 3.0, 55° C., 17 days
[29] = 5% dextrose pH 3.0, 55° C., 21 days
[30] = 5% dextrose pH 3.0, 60° C., 2 days
[31] = 5% dextrose pH 3.0, 60° C., 4 days
[32] = 5% dextrose pH 3.0, 60° C., 6 days
[33] = 5% dextrose pH 3.0, 60° C., 8 days

SMILES: COc1cccc2c1C(=O)c1c(O)c3c(c(O)c1C2=O)C[C@@](O)(C(=O)CO)C[C@@H]3O[C@H]1C[C@H](N)[C@H](O)[C@H](C)O1 [Doxorubicin.HCl, doxorubicin hydrochloride]
- commercially meaningful shelf-life (t90% forecasts) ([1]; 2 mg/ml pH 3.0 aqueous solution): only if the product is stored in a refrigerator
- K × 10^3 calculated ([1]; sterile water pH 3.0, 4° C., Arrhenius): 0.019 1/days
- K × 10^3 calculated ([1]; sterile water pH 3.0, 8° C., Arrhenius): 0.038 1/days
- K × 10^3 calculated [1, 3]: 0.130 1/days
- t90% [1, 3]: 810 days
- pH ([1]; sterile water pH 3.0, 27° C., 0 days): 3.00
- Doxorubicin.HCl assay [1, 4]: 1.993 mg/mL
- pH [1, 4]: 2.95
- Doxorubicin.HCl assay [1, 5]: 1.988 mg/mL
- pH [1, 5]: 2.94
- Doxorubicin.HCl assay [1, 6]: 1.941 mg/mL
- pH [1, 6]: 2.94
- Doxorubicin.HCl assay [1, 7]: 1.962 mg/mL
- pH [1, 7]: 2.95
- Doxorubicin.HCl assay [1, 8]: 1.908 mg/mL
- pH [1, 8]: 2.96
- Doxorubicin.HCl assay [1, 9]: 1.850 mg/mL
- pH [1, 9]: 2.93
- K × 10^3 calculated ([1]; sterile water pH 3.0, 27° C., Arrhenius): 0.918 1/days
- Kobs × 10^3 ([1]; sterile water pH 3.0, 27° C.): 0.850 1/days
- pH ([1]; sterile water pH 3.0, 35° C., 0 days): 3.00
- Doxorubicin.HCl assay [1, 10]: 1.985 mg/mL
- pH [1, 10]: 2.96
- Doxorubicin.HCl assay [1, 11]: 1.952 mg/mL
- pH [1, 11]: 2.98
- Doxorubicin.HCl assay [1, 12]: 1.889 mg/mL
- pH [1, 12]: 2.93
- pH ([1]; sterile water pH 3.0, 35° C., 28 days): 2.92
- Doxorubicin.HCl assay [1, 13]: 1.876 mg/mL
- pH [1, 13]: 2.92
- Kobs × 10^3 ([1]; sterile water pH 3.0, 35° C.): 3.506 1/days
- pH ([1]; sterile water pH 3.0, 45° C., 0 days): 3.00
- Doxorubicin.HCl assay [1, 14]: 1.919 mg/mL
- pH [1, 14]: 2.97
- Doxorubicin.HCl assay [1, 15]: 1.851 mg/mL
- pH [1, 15]: 2.95
- pH ([1]; sterile water pH 3.0, 45° C., 14 days): 2.85
- Doxorubicin.HCl assay [1, 16]: 1.393 mg/mL
- pH [1, 16]: 2.90
- pH ([1]; sterile water pH 3.0, 45° C., 32 days): 2.92
- Kobs × 10^3 ([1]; sterile water pH 3.0, 45° C.): 12.790 1/days
- pH ([1]; sterile water pH 3.0, 55° C., 0 days): 3.00
- Doxorubicin.HCl assay [1, 17]: 1.760 mg/mL
- pH [1, 17]: 2.94
- pH ([1]; sterile water pH 3.0, 55° C., 8 days): 2.90
- pH ([1]; sterile water pH 3.0, 55° C., 14 days): 2.80
- Doxorubicin.HCl assay [1, 18]: 0.730 mg/mL
- pH [1, 18]: 2.82
- Kobs × 10^3 ([1]; sterile water pH 3.0, 55° C.): 49.340 1/days
- commercially meaningful shelf-life (t90% forecasts) ([2]; 2 mg/ml pH 3.0 5% dextrose solution): only if the product is stored in a refrigerator
- t90% ([2]; 5% dextrose pH 3.0, 27° C., Arrhenius): 82 days
- Doxorubicin.HCl assay ([2]; 5% dextrose pH 3.0, 35° C., 0 days): 2.114 mg/mL
- Doxorubicin.HCl assay [2, 19]: 2.044 mg/mL
- pH [2, 19]: 2.98
- Doxorubicin.HCl assay [2, 20]: 2.034 mg/mL
- pH [2, 20]: 2.94
- Doxorubicin.HCl assay [2, 21]: 2.015 mg/mL
- pH [2, 21]: 2.95
- Doxorubicin.HCl assay [2, 22]: 1.934 mg/mL
- pH [2, 22]: 2.90
- Doxorubicin.HCl assay [2, 23]: 1.859 mg/mL
- pH [2, 23]: 2.94
- Kobs × 10^3 ([2]; 5% dextrose pH 3.0, 35° C.): 4.190 1/days
- Doxorubicin.HCl assay ([2]; 5% dextrose pH 3.0, 45° C., 0 days): 2.114 mg/mL
- Doxorubicin.HCl assay [2, 24]: 1.940 mg/mL
- pH [2, 24]: 2.97
- Doxorubicin.HCl assay [2, 25]: 1.870 mg/mL
- pH [2, 25]: 2.98
- Doxorubicin.HCl assay [2, 26]: 1.684 mg/mL
- pH [2, 26]: 2.95
- pH ([2]; 5% dextrose pH 3.0, 45° C., 17 days): 2.96
- Doxorubicin.HCl assay [2, 27]: 1.410 mg/mL
- pH [2, 27]: 2.96
- Kobs × 10^3 ([2]; 5% dextrose pH 3.0, 45° C.): 14.55 1/days
- Doxorubicin.HCl assay ([2]; 5% dextrose pH 3.0, 55° C., 0 days): 2.114 mg/mL
- pH ([2]; 5% dextrose pH 3.0, 55° C., 4 days): 2.95
- pH ([2]; 5% dextrose pH 3.0, 55° C., 8 days): 2.92
- pH ([2]; 5% dextrose pH 3.0, 55° C., 14 days): 2.99
- Doxorubicin.HCl assay [2, 28]: 0.957 mg/mL
- pH [2, 28]: 2.91
- Doxorubicin.HCl assay [2, 29]: 0.796 mg/mL
- pH [2, 29]: 2.95
- Kobs × 10^3 ([2]; 5% dextrose pH 3.0, 55° C.): 58.11 1/days
- Doxorubicin.HCl assay ([2]; 5% dextrose pH 3.0, 60° C., 0 days): 2.114 mg/mL
- Doxorubicin.HCl assay [2, 30]: 1.752 mg/mL
- pH [2, 30]: 2.96
- Doxorubicin.HCl assay [2, 31]: 1.393 mg/mL
- pH [2, 31]: 2.98
- Doxorubicin.HCl assay [2, 32]: 1.176 mg/mL
- pH [2, 32]: 2.96
- Doxorubicin.HCl assay [2, 33]: 0.925 mg/mL
- pH [2, 33]: 2.97
- Kobs × 10^3 ([2]; 5% dextrose pH 3.0, 60° C.): 102.6 1/days
